Source: ChEMBL document CHEMBL1201862, “PubChem BioAssay data set” (2004)
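Grown in 96-well plates, cells were treated for 48 hours with each compound at five concentrations. Insufficient inhibition: endpoint recorded as highest concentration tested. GI50 is the concentration that inhibits growth by half.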 Calls of active or inactive are those of the source. Cut-off read from the data, not from the text of the source: active = GI50 up to about 1.1 µM and inactive = higher.

Assays:
Experiment in all cases: NCI anticancer screen, dose series, 48 h
DLD-1 = system: DLD-1
DMS-114 = system: DMS-114
SNB-78 = system: SNB-78
KM-20L2 = system: KM-20L2
LXFL 529 = system: LXFL 529
M19-MEL = system: M19-MEL
HOP-18 = system: HOP-18
DMS-273 = system: DMS-273
RXF 631 = system: RXF 631

SMILES | GI50 (DLD-1) | GI50 (DMS-114) | GI50 (SNB-78) | GI50 (KM-20L2) | GI50 (LXFL 529) | GI50 (M19-MEL) | GI50 (HOP-18) | GI50 (DMS-273) | GI50 (RXF 631)
COc1ccccc1NC(=O)C1=C(C)NC(C)=C(C(=O)Nc2ccccc2OC)C1c1ccc(N(C)C)cc1 | 17.9 µM (inactive) | 21.8 µM (inactive) | 27.1 µM (inactive) | 23.7 µM (inactive) | 25.4 µM (inactive) | 31.5 µM (inactive) | – | – | –
COc1ccc(/C=C2\C(=O)NC(=O)c3ccccc32)cc1OC | 4.81 µM (inactive) | 5 µM (inactive) | 6.58 µM (inactive) | 5.07 µM (inactive) | – | 41 µM (inactive) | > 100 µM (inactive) | 21.4 µM (inactive) | –
CCOc1ccc(/N=N/c2ccc3oc(=O)c(/C(C)=N\NC(=O)CC(=O)Nc4ccc(Cl)cc4)cc3c2)cc1 | 12.6 µM (inactive) | 15.9 µM (inactive) | 27.9 µM (inactive) | > 100 µM (inactive) | 10.8 µM (inactive) | 27.9 µM (inactive) | – | 16.3 µM (inactive) | 20 µM (inactive)
Cc1cc(C)n(-c2nsc3ccccc23)n1 | – | > 100 µM (inactive) | > 100 µM (inactive) | > 100 µM (inactive) | > 100 µM (inactive) | > 100 µM (inactive) | 15.8 µM (inactive) | > 100 µM (inactive) | –
O=[N+]([O-])c1cccc2nc3ccccc3c(NCCO)c12 | 0.000277 µM (active) | 0.00316 µM (active) | 0.00533 µM (active) | 0.000121 µM (active) | 0.00285 µM (active) | 0.0021 µM (active) | 0.0056 µM (active) | 0.00918 µM (active) | –
O=C(C(O)c1cn(Cc2ccccc2)c2ccccc12)N1CCCCC1 (configuration not stated) | > 100 µM (inactive) | > 100 µM (inactive) | > 10 µM (inactive) | 38.8 µM (inactive) | 79.6 µM (inactive) | > 100 µM (inactive) | 24.1 µM (inactive) | > 100 µM (inactive) | –
CC(=O)NNc1nc(C)c(C(=O)NNC(=O)C(=O)Nc2c(C)cccc2C(C)C)s1 | – | 86.7 µM (inactive) | 27.9 µM (inactive) | > 100 µM (inactive) | 46.1 µM (inactive) | > 100 µM (inactive) | – | > 100 µM (inactive) | –
NC(=O)N/N=C/C(/C=N/NC(N)=O)[N+](=O)[O-] | > 100 µM (inactive) | > 100 µM (inactive) | – | > 100 µM (inactive) | > 100 µM (inactive) | > 100 µM (inactive) | – | – | > 100 µM (inactive)
CC1(c2ccc[n+](Cc3ccccc3)c2)OCCO1 | > 100 µM (inactive) | – | > 100 µM (inactive) | > 100 µM (inactive) | > 100 µM (inactive) | > 100 µM (inactive) | > 100 µM (inactive) | > 100 µM (inactive) | –
Cc1ccccc1NC(=O)c1c(C)oc2c1C(=O)c1ccccc1C2=O | 33 µM (inactive) | 24.7 µM (inactive) | 1.86 µM (inactive) | 65.5 µM (inactive) | 21.5 µM (inactive) | 8.63 µM (inactive) | – | 42 µM (inactive) | –
CCOC(=O)Oc1ccc2[nH]c3c(C)cc(N)c(C)c3c2c1 | > 100 µM (inactive) | 46.7 µM (inactive) | > 100 µM (inactive) | – | – | > 100 µM (inactive) | > 100 µM (inactive) | > 100 µM (inactive) | –
CC(=O)OC1COC(N2C(=O)/C(=N\NC(N)=S)c3cc(Br)ccc32)C(OC(C)=O)C1OC(C)=O (configuration not stated) | 42.2 µM (inactive) | 19.9 µM (inactive) | 53.5 µM (inactive) | > 100 µM (inactive) | 25.5 µM (inactive) | 53.5 µM (inactive) | > 100 µM (inactive) | 38.5 µM (inactive) | –
CCCN(CCCC(NC(C)=O)C(=O)NCc1ccccc1)C(=O)NCCCl (configuration not stated) | > 100 µM (inactive) | > 100 µM (inactive) | – | > 100 µM (inactive) | > 100 µM (inactive) | > 100 µM (inactive) | > 100 µM (inactive) | > 100 µM (inactive) | > 100 µM (inactive)
COC(=O)C1=CO[C@@H](OC2CC(CO)C(O)C(O)C2O)[C@@H]2[C@@H](C)[C@@H](OC(=O)/C=C/c3ccccc3)[C@@H](O)[C@H]12.COC(=O)C1=CO[C@@H](OC2CC(CO)C(O)C(O)C2O)[C@@H]2[C@@H](C)[C@@H](OC(=O)c3ccccc3)[C@@H](O)[C@H]12 (some centres not stated) | > 100 µM (inactive) | > 100 µM (inactive) | – | > 100 µM (inactive) | > 100 µM (inactive) | > 100 µM (inactive) | > 100 µM (inactive) | – | –
COc1c(O)c(O)cc2c1-c1ccc(OC)c(=O)cc1C(NC(C)=O)CC2 (configuration not stated) | 4.71 µM (inactive) | 2.49 µM (inactive) | 3.12 µM (inactive) | 2.7 µM (inactive) | 3.86 µM (inactive) | 6.12 µM (inactive) | > 100 µM (inactive) | 3.27 µM (inactive) | 14.9 µM (inactive)
N=C(N)SCc1cccc([N+](=O)[O-])c1 | 27.2 µM (inactive) | 23.6 µM (inactive) | 35.6 µM (inactive) | 31.7 µM (inactive) | – | 35.3 µM (inactive) | 26.9 µM (inactive) | 30.2 µM (inactive) | –
CCNCC(=O)O[C@]1(CC)C(=O)OCc2c1cc1n(c2=O)Cc2cc3ccccc3nc2-1 | 2.37 µM (inactive) | 0.0857 µM (active) | 5.11 µM (inactive) | 1.14 µM (inactive) | 4.73 µM (inactive) | 0.394 µM (active) | 0.44 µM (active) | 0.0119 µM (active) | –
CC(=O)Oc1cc2c(cc1OC(C)=O)OCC(c1ccc(C)cc1)C2 (configuration not stated) | 21.8 µM (inactive) | 4.94 µM (inactive) | 21.6 µM (inactive) | 25.1 µM (inactive) | – | 9.29 µM (inactive) | 26.9 µM (inactive) | 19.4 µM (inactive) | –
O=C1C=C(Nc2ccc(S(=O)(=O)Nc3ncccn3)cc2)c2ccccc2C1=O | 20.7 µM (inactive) | – | 28.8 µM (inactive) | 28.7 µM (inactive) | 23.2 µM (inactive) | 15.5 µM (inactive) | 26.3 µM (inactive) | 27.7 µM (inactive) | 22.3 µM (inactive)
CCCNC1=C(C(=O)OCC)C(=O)CO1 | > 100 µM (inactive) | > 100 µM (inactive) | > 100 µM (inactive) | > 100 µM (inactive) | > 100 µM (inactive) | > 100 µM (inactive) | – | > 100 µM (inactive) | > 100 µM (inactive)
O=C1NC(=S)NC(=O)C1=CC1CC1 | > 100 µM (inactive) | > 100 µM (inactive) | > 100 µM (inactive) | > 100 µM (inactive) | > 100 µM (inactive) | > 100 µM (inactive) | > 100 µM (inactive) | > 100 µM (inactive) | –
CCOC(=O)C1=C(OC(OCC)C(C)[Se]c2ccccc2)CCC1 (configuration not stated) | 19.3 µM (inactive) | – | 97.1 µM (inactive) | 29.2 µM (inactive) | 14.3 µM (inactive) | 15.8 µM (inactive) | 20.8 µM (inactive) | 10.3 µM (inactive) | –
Cc1ccc(C(=O)C(C)N)cc1C (configuration not stated) | > 100 µM (inactive) | > 100 µM (inactive) | – | > 100 µM (inactive) | > 100 µM (inactive) | > 100 µM (inactive) | – | – | > 100 µM (inactive)
CC(=O)OC1CC2C(C)(C)C(=O)C=C[C@]2(C)C2CCC3(C)C(=CC(=O)C3c3ccoc3)[C@]12C (some centres not stated) | 12.4 µM (inactive) | 10 µM (inactive) | 31.4 µM (inactive) | 14.7 µM (inactive) | 24 µM (inactive) | 16 µM (inactive) | 18.4 µM (inactive) | – | –
COCC1N=C(c2cc(OC)c(OC)c(OC)c2-c2cc3c(cc2[C@H](C)O)OCO3)O[C@H]1c1ccccc1 (some centres not stated) | 83.6 µM (inactive) | – | 61 µM (inactive) | > 100 µM (inactive) | 37.7 µM (inactive) | 37.1 µM (inactive) | 88.9 µM (inactive) | 37.2 µM (inactive) | > 100 µM (inactive)
c1cc2c3c(c1)c1cc4c(cc1c[n+]3CC2)OCO4 [ANHYDROLYCORINIUM CHLORIDE] | 8.83 µM (inactive) | 2.45 µM (inactive) | 4.06 µM (inactive) | 3.56 µM (inactive) | – | 1.33 µM (inactive) | 9.79 µM (inactive) | 4.42 µM (inactive) | –
CCCCCCCCCCCCCCCCCCOCC(O)CO (configuration not stated) [BATILOL] | > 25 µM (inactive) | 18 µM (inactive) | > 25 µM (inactive) | 19.1 µM (inactive) | – | 12 µM (inactive) | 0.61 µM (active) | > 5.93 µM (inactive) | –
C[C@]12CCC(=O)C=C1CC[C@@H]1[C@@H]2[C@@H](O)C[C@@]2(C)[C@H]1CC[C@]2(O)C(=O)COC(=O)CCC1CCCC1 [HYDROCORTISONE CYPIONATE] | > 100 µM (inactive) | > 100 µM (inactive) | > 100 µM (inactive) | > 100 µM (inactive) | > 100 µM (inactive) | > 100 µM (inactive) | – | 61.1 µM (inactive) | –
